# Results: PMC10629583, “Specific inhibition of an anticancer target, polo-like kinase 1, by allosterically dismantling its mechanism of substrate recognition” (Proceedings of the National Academy of Sciences of the …, 2023)
# Tested on: U2OS cells expressing Pendo-mGFP-Plk1 F559D
# Experiment: MTS proliferation assay, U2OS Plk1 RNAi cells expressing Plk1 F559D
# Assay type: cell-based
# Conditions: 3 to 6 μM, 36 h
# Procedure: Cell viability was determined using the […] CellTiter 96® AQueous One Solution Cell Proliferation Assay (MTS) kit (Promega) containing a tetrazolium compound [3-(4,5-dimethylthiazol-2-yl)-5-(3-carboxymethoxy-phenyl)-2-(4-sulfophenyl)-2H-tetrazolium, inner salt (MTS)] and an electron-coupling phenazine ethosulfate. For the MTS assays in Fig. 1B, L363 cells cultured in a 96-well plate were treated with the indicated compounds for 48 h (the final volume of 100 μL). After the compound treatment, cells were additionally treated with 20 μL of the MTS solution and incubated at 37 °C for 2 to 4 h in a humidified 5% CO2 atmosphere. The absorbance of the resulting sample was measured at 490 nm using a PerkinElmer EnSpire Multimode 96-well plate reader. For the MTS assays in Fig. 4E, U2OS cells stably expressing either Pendo-mGFP-Plk1 WT or F559D were seeded at approximately 5,000 cells/well in a 96-well plate, depleted of endogenous Plk1 by RNAi, and then treated with either control DMSO or Allopole as indicated in the schematic diagram in SI Appendix, Fig. S4E.
compound,measurement,value
Cn1cnc([N+](=O)[O-])c1Sc1nnc2n(CC3CC3)c(=O)c3sc(Cl)cc3n12 [Allopole],Proliferation (in words),uninhibited proliferation
